Test systems include K-562 leukemia; PC-3 prostate; MDA-MB-231 breast; HCT-15 colon; A549 NSCLC; IGROV1 ovarian; HOP-62 NSCLC; HL-60(TB) leukemia; HOP-92 NSCLC; HCT-116 colon; TK-10 renal; CAKI-1 renal; CCRF-CEM leukemia; MDA-N; SK-MEL-2 melanoma; SF-539 CNS; SK-MEL-5 melanoma; UACC-62 melanoma; BT-549 breast.
Experiment in all cases: inhibition of tumour cell growth, NCI panel, 48 h

Each structure is given as a SMILES string.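 Results reflect a 48-hour exposure of cells in 96-well plates to compound at five concentrations. TGI marks complete inhibition of growth.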 Bounds are passed on as bounds.

For `O=C(CC(O)(C(F)(F)Cl)C(F)(F)Cl)CC(O)(C(F)(F)Cl)C(F)(F)Cl`, the TGI in the experiment with K-562 leukemia is 4.45 µM; in the experiment with PC-3 prostate, 8.2 µM; in the experiment on MDA-MB-231 breast, 5.29 µM; with HCT-15 colon it was more than 10 µM; in the experiment with A549 NSCLC it was more than 10 µM; in the experiment with IGROV1 ovarian it was more than 10 µM. For the same compound, the TGI was 5.11 µM in the experiment on HOP-62 NSCLC; 4.94 µM with HL-60(TB) leukemia; 3.04 µM with HOP-92 NSCLC; 3.68 µM with HCT-116 colon; more than 10 µM in the experiment on TK-10 renal; 6.62 µM in the experiment on CAKI-1 renal. In addition, the TGI with CCRF-CEM leukemia is more than 10 µM; in the experiment on MDA-N, more than 10 µM; in the experiment with SK-MEL-2 melanoma it was 3.54 µM; with SF-539 CNS, more than 10 µM; in the experiment on SK-MEL-5 melanoma it was 4.62 µM; with UACC-62 melanoma, more than 10 µM.

Turning to `COc1ccc(NS(=O)(=O)c2ccc3ncn(NS(=O)(=O)c4ccc(I)cc4)c(=O)c3c2)cc1`, the TGI in the experiment on K-562 leukemia, in the experiment on PC-3 prostate, in the experiment with MDA-MB-231 breast, with HCT-15 colon, in the experiment with A549 NSCLC and with IGROV1 ovarian was more than 100 µM in each case. Also, the TGI in the experiment on HOP-62 NSCLC, in the experiment with HL-60(TB) leukemia, with HOP-92 NSCLC, in the experiment on HCT-116 colon, in the experiment with TK-10 renal and in the experiment on CAKI-1 renal was more than 100 µM each time. Besides, the TGI in the experiment with CCRF-CEM leukemia, in the experiment on MDA-N, in the experiment on SK-MEL-2 melanoma, with SF-539 CNS, with SK-MEL-5 melanoma and in the experiment on UACC-62 melanoma was more than 100 µM in each case.

`CC(=O)OC12c3ccccc3C(c3ccccc31)C1C(=O)N(c3ccccc3O)C(=O)C12` (configuration not stated): the TGI in the experiment on K-562 leukemia, in the experiment on PC-3 prostate, in the experiment on MDA-MB-231 breast, in the experiment on HCT-15 colon, with A549 NSCLC and in the experiment on IGROV1 ovarian was more than 100 µM each time. The TGI with HOP-62 NSCLC, in the experiment with HL-60(TB) leukemia, in the experiment with HCT-116 colon, with TK-10 renal, in the experiment with BT-549 breast and in the experiment with CAKI-1 renal was more than 100 µM in each case. Further, the TGI in the experiment on CCRF-CEM leukemia, in the experiment with MDA-N, with SF-539 CNS and in the experiment with SK-MEL-5 melanoma was more than 100 µM throughout.

For the compound `Cc1ccc(C)n1-n1c(Cc2ccc(Cl)cc2)n[nH]c1=O`, the TGI in the experiment with K-562 leukemia, in the experiment on PC-3 prostate, in the experiment with MDA-MB-231 breast, in the experiment on HCT-15 colon, in the experiment with A549 NSCLC and with IGROV1 ovarian was more than 100 µM throughout. Also, the TGI with HOP-62 NSCLC, in the experiment on HCT-116 colon, in the experiment on TK-10 renal, in the experiment on BT-549 breast, in the experiment on CAKI-1 renal and with CCRF-CEM leukemia was more than 100 µM in each case. The TGI with MDA-N, in the experiment with SK-MEL-2 melanoma, in the experiment on SK-MEL-5 melanoma and in the experiment on UACC-62 melanoma was more than 100 µM throughout.

For the compound `CCOC(=O)C(=O)N=Nc1c(O)[nH]c2ccccc12`, the TGI with K-562 leukemia, in the experiment on PC-3 prostate, in the experiment on MDA-MB-231 breast, in the experiment on HCT-15 colon, with A549 NSCLC and in the experiment with IGROV1 ovarian was more than 100 µM throughout. Moreover, the TGI in the experiment on HOP-62 NSCLC, in the experiment with HCT-116 colon, in the experiment with TK-10 renal, in the experiment with BT-549 breast, in the experiment on CAKI-1 renal and in the experiment on CCRF-CEM leukemia was more than 100 µM in each case. The TGI in the experiment with MDA-N, in the experiment on SK-MEL-2 melanoma, in the experiment on SK-MEL-5 melanoma and with UACC-62 melanoma was more than 100 µM each time.

For the compound `CCOC(=O)c1sc2c(c1OC(=O)c1ccc(Cl)cc1Cl)c(=O)n(-c1ccccc1)c(=S)n2-c1ccccc1`, the TGI was more than 100 µM with K-562 leukemia; more than 100 µM in the experiment on PC-3 prostate; more than 90.8 µM in the experiment with MDA-MB-231 breast; 38.6 µM with HCT-15 colon; more than 100 µM in the experiment on A549 NSCLC; more than 40.9 µM in the experiment with IGROV1 ovarian. Further, the TGI in the experiment with HOP-62 NSCLC is more than 100 µM; with HL-60(TB) leukemia, 30.9 µM; with HOP-92 NSCLC, 26 µM; in the experiment with HCT-116 colon it was more than 78.5 µM; with TK-10 renal, more than 100 µM; in the experiment with CAKI-1 renal, more than 100 µM. The TGI in the experiment on CCRF-CEM leukemia was more than 100 µM; in the experiment with MDA-N, 68.7 µM; with SK-MEL-2 melanoma, 18.6 µM; in the experiment with SF-539 CNS it was more than 100 µM; with SK-MEL-5 melanoma it was 51.1 µM; in the experiment on UACC-62 melanoma, more than 80.2 µM.

For the compound `CCN(CC)CCC1CCCCN1CC(=O)N1c2ccccc2NC(=O)CC1C` (configuration not stated), the TGI in the experiment on K-562 leukemia, in the experiment with PC-3 prostate, in the experiment on MDA-MB-231 breast, with HCT-15 colon, with A549 NSCLC and with IGROV1 ovarian was more than 100 µM each time. Besides, the TGI in the experiment on HOP-62 NSCLC, in the experiment on HL-60(TB) leukemia, in the experiment on HOP-92 NSCLC, with HCT-116 colon, with TK-10 renal and with CAKI-1 renal was more than 100 µM each time. For the same compound, the TGI in the experiment with CCRF-CEM leukemia, with MDA-N, with SK-MEL-2 melanoma, with SF-539 CNS, in the experiment with SK-MEL-5 melanoma and in the experiment with UACC-62 melanoma was more than 100 µM in each case.

Regarding `CCOC(=O)C1C(c2ccccc2)C2(C#N)C(=N)OC1(C)C2(C#N)C#N` (configuration not stated), the TGI in the experiment on K-562 leukemia was 48.8 µM; with PC-3 prostate, more than 100 µM; with MDA-MB-231 breast it was 26.7 µM; in the experiment on HCT-15 colon, more than 100 µM; in the experiment on A549 NSCLC it was more than 100 µM; in the experiment on IGROV1 ovarian, 37.8 µM. Besides, the TGI turned out to be 55.7 µM in the experiment with HL-60(TB) leukemia; 48.6 µM with HOP-92 NSCLC; 35.7 µM with HCT-116 colon; 69.7 µM in the experiment with TK-10 renal; 20.3 µM with CAKI-1 renal; 99.7 µM with CCRF-CEM leukemia. Moreover, the TGI came to 27.9 µM with MDA-N; 59.6 µM in the experiment on SK-MEL-2 melanoma; 37.4 µM in the experiment with SF-539 CNS; 25.1 µM in the experiment with SK-MEL-5 melanoma; 82.6 µM in the experiment with UACC-62 melanoma.

Values taken from PubChem BioAssay (NCI).
